Data from US6696451B1 (dated 2004).

Structure (SMILES): COC(=O)C1=C(C)NC(c2ncccc2F)=NC1c1ccc(F)cc1 (stereo not drawn)
- melting point: 127 to 129 °C

Structure (SMILES): CCOC(=O)C1=C(C)NC(c2ncccc2F)=NC1c1ccc(Cl)cc1 (stereo not drawn)
- melting point: 133 to 134 °C

Structure (SMILES): COC(=O)C1=C(C)NC(c2ncccc2F)=NC1c1ccccc1 (stereo not drawn)
- melting point: 110 to 111 °C

Structure (SMILES): CCOC(=O)C1=C(C)NC(c2ncccc2F)=NC1c1c(F)cccc1F (stereo not drawn)
- melting point: 140 to 142 °C

Structure (SMILES): COC(=O)C1=C(C)NC(c2ncccc2F)=NC1c1ccccc1C(F)(F)F (stereo not drawn)
- melting point: 165 to 167 °C

Structure (SMILES): COC(=O)C1=C(C)NC(c2ncccc2F)=NC1c1c(Cl)cccc1Cl (stereo not drawn)
- melting point: 180 to 182 °C

Structure (SMILES): CCOC(=O)C1=C(C)NC(c2ncccc2F)=NC1c1c(Cl)cccc1Cl (stereo not drawn)
- melting point: 148 to 149 °C

Structure (SMILES): COC(=O)C1=C(C)NC(c2ncccc2F)=NC1c1ccc(F)cc1Cl (stereo not drawn)
- melting point: 121 to 123 °C

Structure (SMILES): COC(=O)C1=C(C)NC(c2ccc(C(F)(F)F)cn2)=NC1c1ccccc1Cl (stereo not drawn)
- melting point: 121 to 123 °C

Structure (SMILES): CCOC(=O)C1=C(C)NC(c2ncccc2Cl)=NC1c1ccccc1Cl (stereo not drawn)
- melting point: 138 to 140 °C

Structure (SMILES): COC(=O)C1=C(C)NC(c2ccc(Cl)cn2)=NC1c1ccccc1Cl (stereo not drawn)
- melting point: 163 to 165 °C

Structure (SMILES): C=CCOC(=O)C1=C(C)NC(c2ncccc2F)=NC1c1ccccc1Cl (stereo not drawn)
- melting point: 124 to 126 °C

Structure (SMILES): CC1=C(C(=O)OCCOc2ccccc2)C(c2ccccc2Cl)N=C(c2ncccc2F)N1 (stereo not drawn)
- melting point: 123 to 125 °C

Structure (SMILES): CCOC(=O)C1=C(C)NC(c2ncccc2F)=NC1c1ccc(I)cc1 (stereo not drawn)
- melting point: 145 to 146 °C

Structure (SMILES): COC(=O)C1=C(C2CC2)NC(c2ncccc2F)=NC1c1ccccc1Cl (stereo not drawn)
- melting point: 120 to 122 °C

Structure (SMILES): COC(=O)C1=C(C)NC(c2ncccc2Cl)=NC1c1ccccc1Cl (stereo not drawn)
- melting point: 144 to 146 °C

Structure (SMILES): COC(=O)C1=C(C)NC(c2ncccc2F)=NC1c1ccc(Cl)c([N+](=O)[O-])c1 (stereo not drawn)
- melting point: 135 to 137 °C

Structure (SMILES): COC(=O)C1=C(C)NC(c2ncccc2F)=NC1c1ccccc1Br (stereo not drawn)
- melting point: 143 to 144 °C

Structure (SMILES): COC(=O)C1=C(C)NC(c2ncccc2F)=NC1c1ccc(Br)cc1 (stereo not drawn)
- melting point: 156 to 157 °C

Structure (SMILES): CCOC(=O)C1=C(C)NC(c2ncccc2F)=NC1c1ccc(Br)cc1 (stereo not drawn)
- melting point: 134 to 135 °C

Structure (SMILES): CCOC(=O)C1=C(C)NC(c2ncccc2F)=NC1c1ccc(O)cc1Cl (stereo not drawn)
- melting point: 247 to 248 °C

Structure (SMILES): CCOC(=O)C1=C(C)NC(c2ncccc2F)=NC1c1ccc(F)cc1 (stereo not drawn)
- melting point: 129 to 130 °C

Structure (SMILES): CCOC(=O)C1=C(C)NC(c2ncccc2Cl)=NC1c1ccc(Br)cc1F (stereo not drawn)
- melting point: 126 to 127 °C

Structure (SMILES): CCOC(=O)C1=C(C)NC(c2ncccc2F)=NC1c1ccc(Br)cc1F (stereo not drawn)
- melting point: 156 to 158 °C

Structure (SMILES): CCOC(=O)C1=C(C)NC(c2ncccc2F)=NC1c1ccc(Cl)cc1F (stereo not drawn)
- melting point: 162 to 163 °C

Structure (SMILES): CCOC(=O)C1=C(C)NC(c2ncccc2F)=NC1c1ccc(F)cc1C (stereo not drawn)
- melting point: 167 to 169 °C

Structure (SMILES): CCOC(=O)C1=C(C)NC(c2ncccc2F)=NC1c1ccccc1I (stereo not drawn)
- melting point: 163 to 164 °C

Structure (SMILES): COC(=O)C1=C(C)NC(c2ncccc2F)=NC1c1ccc(Cl)cc1F (stereo not drawn)
- melting point: 120 to 122 °C

Structure (SMILES): COC(=O)C1=C(C)NC(c2ncccc2Cl)=NC1c1ccc(Br)cc1F (stereo not drawn)
- melting point: 103 to 104 °C

Structure (SMILES): COC(=O)C1=C(C)NC(c2ncccc2F)=NC1c1ccccc1Cl.Cl (stereo not drawn)
- melting point: 210 to 212 °C

Structure (SMILES): CC(=O)C1=C(C)NC(c2ncccc2F)=NC1c1ccccc1Cl (stereo not drawn)
- melting point: 132 to 133 °C

Structure (SMILES): COC(=O)C1=C(C)NC(c2ncccc2Cl)=NC1c1ccc(F)cc1Cl (stereo not drawn)
- melting point: 95 to 96 °C

Structure (SMILES): COC(=O)C1=C(C)NC(c2ncccc2Cl)=NC1c1ccccc1Br (stereo not drawn)
- melting point: 131 to 132 °C

Structure (SMILES): CCOC(=O)C1=C(C)NC(c2ncccc2Cl)=NC1c1ccccc1Br (stereo not drawn)
- melting point: 137 to 138 °C

Structure (SMILES): COC(=O)C1=C(C)NC(c2ncccc2F)=NC1c1ccc([N+](=O)[O-])cc1 (stereo not drawn)
- melting point: 142 to 143 °C

Structure (SMILES): CCOC(=O)C1=C(C)NC(c2ncccc2F)=NC1c1ccc(Cl)cc1[N+](=O)[O-] (stereo not drawn)
- melting point: 184 to 186 °C

Structure (SMILES): CCOC(=O)C1=C(C)NC(c2ncccc2F)=NC1c1cc(Cl)cc(Cl)c1 (stereo not drawn)
- melting point: 133 to 134 °C

Structure (SMILES): COC(=O)C1=C(C)NC(c2ncccc2F)=NC1c1cc([N+](=O)[O-])c(Cl)cc1F (stereo not drawn)
- melting point: 135 to 136 °C

Structure (SMILES): COC(=O)C1=C(C)NC(c2ccc(F)cn2)=NC1c1ccc(F)cc1Cl (stereo not drawn)
- melting point: 131 °C

Structure (SMILES): CCOC(=O)C1=C(C)NC(c2ccc(F)cn2)=NC1c1ccc(F)cc1Cl (stereo not drawn)
- melting point: 124 °C

Structure (SMILES): CCOC(=O)C1=C(C)NC(c2ccc(OC)cn2)=NC1c1ccc(F)cc1Cl (stereo not drawn)
- melting point: 141 °C

Structure (SMILES): COC(=O)C1=C(C)NC(c2cc(OC)ccn2)=NC1c1ccc(F)cc1Cl (stereo not drawn)
- melting point: 132 °C

Structure (SMILES): COC(=O)C1=C(C)NC(c2cccc(C)n2)=NC1c1ccccc1Cl (stereo not drawn)
- melting point: 142 to 143 °C

Structure (SMILES): COC(=O)C1=C(C)NC(c2ncccc2F)=NC1c1ccc(Cl)cc1 (stereo not drawn)
- melting point: 139 to 140 °C

Structure (SMILES): COC(=O)C1=C(C)NC(c2ncccc2F)=NC1c1cccc2ncc(-c3ccccc3)cc12 (stereo not drawn)
- melting point: 174 to 175 °C
